Source: patent US12698534B2, “Systems and methods for characterizing and treating disease” (Arizona Board of Regents on Behalf of the University of …, priority 2019, dated 2026)

What was measured:
L1-ORF1p = L1-ORF1p expression by immunoblotting in lung cells treated with NCL antagonists; assay type: cell-based, human
Method: Cell lines were purchased from the American Type Culture Collection (ATCC). Cells were grown in a humidified environment at 37° C. with 5% CO2. Cell lines were confirmed to be free of mycoplasma contamination (MycoAlert; Lonza). NSCLC cell lines (NCI-H460, NCI-H520, NCI-H1299, and A549) were grown in RPMI medium supplemented with fetal bovine serum at a concentration of 10%, […] penicillin and […] streptomycin (Life Technologies). The human bronchial epithelial cell lines BEAS-2B and BZR were grown in LHC-9 medium (Thermo Fisher Scientific). Verification of all cell line identities was performed by short tandem repeat (STR) sequencing using reference databases from ATCC (Genetics Core, University of Arizona, AZ). […] All protein concentrations were determined using the bicinchoninic acid assay (Thermo Fisher Scientific).
Total cell lysates were resolved by SDS-polyacrylamide gel electrophoresis and electrotransferred onto polyvinylidene fluoride membranes (Millipore) in Tris-glycine buffer containing 20% methanol. Proteins were detected by immunoblotting. […]

LINE-1 = LINE-1 mRNA and ORF1p in extracellular vesicles of BaP-stimulated H460 cells; assay type: cell-based, human; details: 48 h, various concentrations
Method: EV isolation: Media were centrifuged at 500×g for 5 min to remove cells and concentrated using a 100 kDa MWCO Amicon filter. Samples were then centrifuged at 25,000×g for 30 min to pellet apoptotic vesicles and cellular debris followed by ultracentrifugation at 100,000×g for 2 h. The EV pellet was washed in PBS and either re-centrifuged at 100,000×g or loaded onto an iodixanol gradient.
Total RNA was harvested (Zymo) and subjected to post-elution DNAse digestion. A cDNA was created using oligo d (T) primers. Gene expression analysis was performed via qPCR using probe-based detection. Expression was expressed as a fold change from the EV-free medium (EFM).

[1] = tested on: ORFeus^LSL transgene (human LINE-1); experiment: ORFeus LINE-1 mRNA by RT-qPCR in mouse tissues; assay type: in vivo, mice
Method: (§1) A BioLite Intubation System (Braintree Scientific Inc, USA) was used for intratracheal instillation of ORFeus^LSL mice (29-38 g) anesthetized with ketamine and xylazine (100 mg/kg and 10 mg/kg, respectively). All mice were genotyped to confirm genetic identity. Control mice were given one dose of 5×10^10 PFU adenoCRE recombinase dissolved in H2O or DMSO. […] Mice were sacrificed by cervical dislocation after euthanasia with CO2 one-week after treatment. Tissues were collected and stored at 4° C. in RNA later (Thermo Fisher Scientific, CA).
RNA was extracted using the RNeasy Plus Mini Kit (Qiagen, MD). An aliquot of 250 ng RNA was reverse transcribed into first-strand cDNA using SuperScript® III (Invitrogen, CA). RT-qPCR was carried out for LINE-1 and nine genes within its oncogenic regulatory network. […] GAPDH was used as a control. Each reaction included 4.0 μL of cDNA, 0.5 μL of gene-specific primer pairs, and 5.0 μL SyberGreen dye and ddH2O to a final volume of 20 μL. Amplifications were completed using StepOnePlus™ RT-qPCR System and fold changes calculated using 2^−ΔΔct.

LINE-1 mRNA = LINE-1 mRNA and RNA in cells and exosomes by RT-qPCR; assay type: cell-based, Human; details: H460 exosomes
From the text: (§2) Human 460 large cell lung carcinoma cells were authenticated by the UA tissue culture core facility and then cultured in RPMI media (Gibco) supplemented with 10% exosome-free FBS. One day before exposure, cells were counted, seeded, and allowed to attach overnight. Prior to each exposure, medium was removed and cells were washed with PBS to remove cellular debris and extracellular vesicles. After exposure, culture medium was harvested for exosome collection, cells were detached with trypsin-EDTA (Gibco), counted via hemocytometer, and cell viability was assessed using trypan blue exclusion.
(§3) Nucleic acids were extracted from cell and exosome pellets using the Quick DNA-RNA Miniprep Plus. RNA was subjected to an additional DNAseI digestion on-column (RNA from cells) or prior to reverse transcription (RNA from exosomes; Turbo DNA-free; Invitrogen). Following isolation DNA and RNA quantity and integrity were assessed using the Cytation X system. LINE-1 mRNA was detected in equal volumes of exosome RNA using OneStep RT-qPCR (NEB). To assess cellular LINE-1 mRNA levels, LINE-1 mRNA was normalized to B-Actin mRNA and expressed as a fold change from control using the Pfaffl technique. […] Briefly, the fluorescence units from the reverse transcription control (RTC; no reverse transcriptase enzyme) for each sample was subtracted from the complete sample amplification and the remaining fluorescence units were divided by cell number. The resulting values approximate the amount of LINE-1 or BActin mRNA present in exosomes that is also normalized by cell number. LINE-1 DNA copies were quantified using absolute qPCR quantification. Briefly, known copy numbers of plasmids bearing the LINE-1 sequence were used to create a standard curve, which could then be used to calculated copy number from samples. These copy numbers were then divided by cell number to yield the number of LINE-1 DNA copies per cell (cellular DNA) and the number of exosome LINE-1 DNA copies per cell (exosome DNA).

LINE-1 DNA = LINE-1 DNA copies in cells and exosomes by absolute qPCR; assay type: cell-based, Human; details: for exosome LINE-1 DNA copies released per cell, mean (±SE): H460 exosomes
From the text: as §2, §3

[2] = tested on: Lung tissues in ORFeus^LSL mice; experiment: Lung histology and general toxicity after intratracheal instillation; assay type: in vivo
Method: as §1, with “DMSO. The optimal adenovirus dose was defined empirically as a dose that only modestly activated the transgene.” for “DMSO.”
Lung sections were snap-frozen in OCT. Tissues were fixed with cold acetone and stained with hematoxylin and eosin. Samples were evaluated blindly by two pathologists.

[3] = tested on: Human 460 large cell lung carcinoma cells; experiment: BaP exposure of H460 cells: cell count and trypan blue viability; assay type: cell-based; details: for cell number at conclusion of exposure, mean (±SEM): 48 hour
From the text: as §2

[4] = tested on: H460 large cell lung cancer cells; experiment: Exosome quantity and size by Nanosight NTA after BaP exposure; assay type: cell-based, Human; set-up: number of exosomes released per cell: dose or concentration left out as unconfirmed
From the text: as §2
Cell media was centrifuged at 500×g for 5 minutes to remove cells and large debris and then stored at −80° C. To isolate exosomes, cell medium was centrifuged at 25,000×g for 1.5 hours to remove apoptotic bodies and other large extracellular vesicles. To precipitate exosomes, polyethylene glycol (PEG) MW 6,000 was added to the supernatant to a final concentration of 10% (w/v), and centrifuged again at 15,000×g for 30 minutes. Each exosome pellet was resuspended in 2 mL PBS, which was then subdivided into fractions for Nanosight Nanoparticle Tracking Analysis (NTA), nucleic acid extraction, and protein extraction. Nucleic acids and proteins present outside of exosomes were enzymatically digested to prevent confounding of exosome cargo analysis. Exosome fractions designated for nucleic acid analysis were treated with DNAseI for 30 minutes at 37° C. and RNAseA for 5 minutes at RT and then supplemented with RNA Secure (Invitrogen) prior to lysis. Exosome fractions designated for protein analysis were treated with proteinaseK for 30 minutes at 37° C. Following enzymatic digestion, exosomes were pelleted a final time by addition of PEG 6,000 to 10%, and centrifugation at 15,000×g for 15 minutes. To assess exosome size and quantity, Nanosight NTA was performed. Each sample was read five times and the sample grand mean and standard error for each nanoparticle size bin were reported. Nanosight experiments were performed in technical duplicate. […]

[5] = molecular target: the molecule itself; experiment: Western blot of EV iodixanol gradient fractions (self-association)

In the case of “5′-GGTGGTGGTGGTTGTGGTGGTGGTGG-3′ (SEQ ID NO:2) (DNA, backbone not given here) [AS1411, oligodeoxynucleotide DNA aptamer targeting nucleolin]”, the L1-ORF1p protein expression (L1-ORF1p; NCI-H520 cells, high concentrations (20 μM)) is reported as “without effect” and the L1-ORF1p protein expression (L1-ORF1p; any of the cell lines (data not shown)) is reported as “without effect”.

With `c1ccc2c(c1)cc1ccc3cccc4ccc2c1c34` [BaP, benzo[a]pyrene] the “EV LINE-1 levels versus cellular LINE-1 levels” value (LINE-1) was “mirrored within EVs”, the “ORFeus LINE-1 mRNA expression in lung” value ([1]; male and female lungs, one week after treatment) was “significantly increased expression of the transgene” and the “activation of the LINE-1 transgene in other tissues” value ([1]; stomach, heart, kidney, liver, intestine) was “only stomach, but not heart, kidney, liver or intestine, showed activation of the LINE-1 transgene”. The “exosome LINE-1 mRNA, Pfaffl method normalized to B-Actin mRNA” value (LINE-1 mRNA) was “did not observe significant increases”, the “LINE-1 mRNA export in exosomes per cell” value (LINE-1 mRNA; 0.25 μM) was “approximately two-fold” and the “LINE-1 mRNA export in exosomes per cell” value (LINE-1 mRNA; 0.5 μM) was “approximately two-fold”. For the same molecule, the “LINE-1 mRNA export in exosomes per cell” value (LINE-1 mRNA; 1 μM) was “decreased export”, the “quantity of total exosome RNA” value (LINE-1 mRNA; 1 μM) was 83.26 ± 16.94 ng and the “exosome B-Actin mRNA released per cell” value (LINE-1 mRNA; fluorescence units adjusted by cell number) was “dose-dependent increases”. For the same molecule, the “cellular LINE-1 DNA copies per cell” value (LINE-1 DNA; H460 cells) was “did not significantly change”, the “exosome LINE-1 DNA copies released per cell, mean (±SE)” value (LINE-1 DNA; 0.25 μM) was 61.04±31.3 copies and the “exosome LINE-1 DNA copies released per cell, mean (±SE)” value (LINE-1 DNA; 0.5 μM) was 62.43±28.98 copies. For the same molecule, the “exosome LINE-1 DNA copies released per cell, mean (±SE)” value (LINE-1 DNA; 1 μM) was 85.96±51.21 copies, the “toxic effects in treated mice” value ([2]; ORFeus^LSL mice, at any time) was “No dramatic toxic effects” and the “lung histology: leukocytic infiltration” value ([2]; mouse, in vivo) was “significant leukocytic infiltration into the lungs”. The “lung histology: vessel congestion and mononuclear cell infiltration” value ([2]; mouse, in vivo) was “pulmonary vessel congestion with focal-to-diffuse mononuclear cell infiltration into parenchyma”, the cell proliferation ([3]; 48 hour exposure) was “reduce cell proliferation in a dose-dependent manner” and the “cell number at conclusion of exposure, mean (±SEM)” value ([3]; 0.5 μM) was 14.0±2.3 million cells. The “cell number at conclusion of exposure, mean (±SEM)” value ([3]; 1 μM) was 11.1±1.9 million cells, the “size range in which more exosomes were produced” value ([4]; 0.25 μM) was 64.5 to 71.5 nM and the “size range in which more exosomes were produced” value ([4]; 1 μM) was 61.5 to 77.5 nM. The “number of exosomes released per cell” value ([4]; particles 30-150 nm normalized to cell number) was “increased”.

B1: human LINE-1 ORF1 protein (L1-ORF1p) (other, UniProt Q9UN81 1-338, looked up)
chain: MGKKQNRKTGNSKTQSASPPPKERSSSPATEQSWMENDFDELREEGFRRSNYSELREDIQTKGKEVENFEKNLEECITRITNTEKCLKELMELKTKARELREECRSLRSRCDQLEERVSAMEDEMNEMKREGKFREKRIKRNEQSLQEIWDYVKRPNLRLIGVPESDVENGTKLENTLQDIIQENFPNLARQANVQIQEIQRTPQRYSSRRATPRHIIVRFTKVEMKEKMLRAAREKGRVTLKGKPIRLTADLSAETLQARREWGPIFNILKEKNFQPRISYPAKLSFISEGEIKYFIDKQMLRDFVTTRPALKELLKEALNMERNNRYQPLQNHAKM
notes: Endogenous protein detected on Western blots of human cell lysates and EV extracts; Seen as a monomer, a dimer and higher multimers
B1: binds [5].
